Data reported in US5084082A, “Soybean plants with dominant selectable trait for herbicide resistance” (priority 1990, dated 1992).

Columns and labels:
Williams 82 = test: Test C preemergence (soil) sulfonylurea application; type: in vivo, soybean; conditions: 19 days after treatment
From the text: (§1) W20, a line homozygous for a dominant sulfonylurea-resistance mutation, was compared to Williams 82 in terms of response to preemergence application of three sulfonylurea herbicides. The experimental unit consisted of a single 18 cm pot filled with soil (Sassafras loamy sand with 0.8% organic matter and pH 6.7) in which 6 seeds of a given soybean line were planted 2 cm deep. After planting, each pot was sprayed (using a conveyor belt spray apparatus to emulate field application) with one of 22 different treatments including a check sprayed with AGWT (90% acetone, 4% glycerol, 4% water, 2% Tween-20), and 21 different herbicide treatments using AGWT as a carrier. The herbicide treatments included 7 different concentrations (Table IX) each of three sulfonyl-ureas: Compound 5, Compound 4, and Compound 1. Each herbicide x line treatment was replicated three times. After herbicide treatment, pots were transferred to a greenhouse and arranged in a randomized complete block design. Nineteen days after treatment, each pot was rated visually for herbicide injury using the scale described previously. For each herbicide, analysis of variance on injury ratings was performed separately. Fisher's least significant difference (LSD) was used to determine the significance of line mean differences at each rate using the 95% level of confidence.

W20 = test: as above; type: in vivo, soybean; conditions: 19 days after treatment
From the text: as §1

[1] = system: Acetolactate synthase (ALS) from leaves of W20; test: Test D ALS assay with chlorsulfuron; type: biochemical, soybean
Experimental: (§2) Acetolactate synthase (ALS) was extracted from leaves of soybean plants growing vegetatively. The leaves were homogenized in 4 volumes of buffer containing 100 mM hepes (pH 7.5), 1 mM sodium pyruvate, 0.5 mM magnesium chloride, 0.5 mM thiamine pyrophosphate, […], 10% glycerol, 5% PVPP, and 0.2% mercaptoethanol. The homogenate was filtered through cheese cloth and centrifuged at 20,000 g for 20 min. ALS was precipitated from the supernatant with ammonium sulfate. The enzyme was collected between 20 and 60% saturation by centrifugation at 20,000 g for 20 min. The pellet was resuspended in buffer containing 100 mM Hepes, 1 mM sodium pyruvate, and 0.5 mM magnesium chloride, and desalted on PD-10 columns (Pharmacia) equilibrated with the same buffer. ALS assays were carried out in a final volume of 0.5 mL at 30° C. The final reaction mixture contained 100 mM Hepes (pH 7.5), 1 mM magnesium chloride, 60 mM sodium pyruvate, 0.4 mM thiaminepyrophosphate, […], and various concentrations of chlorsulfuron. The assays were initiated with the addition of enzyme ([…]) and terminated with the addition of […] of 6N sulfuric acid. The acidified reaction mixture was heated to 60° C. for 15 min, after which 0.5 mL of 0.5% (W/V) creatine and 0.5 mL of 5% (W/V) napthol (freshly prepared in 2.5 N sodium hydroxide) were added. The reaction mixtures were heated for an additional 15 min at 60° C., and the absorbance was read at 525 nm. Data are expressed in terms of % control (minus Compound 1) activity and are the average of two replications. Fisher's least significant difference (LSD) value (at the 95% level of confidence) was calculated for each Compound 1 concentration to determine the significance of genotype mean differences.

[2] = system: Acetolactate synthase (ALS) from leaves of W28; test: Test D ALS assay with chlorsulfuron; type: biochemical, soybean
Experimental: as §2

[3] = system: Acetolactate synthase (ALS) from leaves of W23; test: Test D ALS assay with chlorsulfuron; type: biochemical, soybean
Experimental: as §2

[4] = system: Acetolactate synthase (ALS) from leaves of W19; test: Test D ALS assay with chlorsulfuron; type: biochemical, soybean
Experimental: as §2

ALS of W23-10 = test: In vitro ALS activity of leaf tissue in the presence of Compounds 8 and 9; type: biochemical, soybean; conditions: W23-10, 100 ppb
From the text: At approximately 1 month after transplantation, some of the selections appeared much healthier than others. For example, W4-4, W4-6, W6-1, W6-2, W6-4, W23-10, and W23-11 recovered very well from the seed soak treatment with Compound 8. These plants were suspected of having a higher level of ALS resistance to Compound 8 than did the parental material from which they were derived. The applicant was also interested to see if any of these selections were cross resistant to an imidazolinone herbicide such as Compound 9. To test this hypothesis, leaf tissue of the one-month-old M2 plants was sampled and assayed in vitro for ALS activity in the presence of Compound 8 and Compound 9. The ALS assay procedure was essentially identical to the previously described ALS assay except that the herbicide concentrations tested were 100 ppb Compound 8 and 10 ppm Compound 9. Williams and mutant W20 soybean plants were also assayed as control genotypes for comparison. Williams contains no genes conferring the ALS-based sulfonylurea resistance while W20 is homozygous for a single mutation conferring ALS-based sulfonylurea resistance.
as §2

Williams = test: Seed soak test with Compound 8; type: in vivo, soybean; conditions: seeds soaked 16 hours in 2 ppm solution, within two weeks of planting
Experimental: (§3) The original W4-4 M2 plant was allowed to self pollinate, mature, and produced a family of M3 seeds. An M3 progeny test was then conducted to determine if the new resistance phenotype was heritable and if the M3 family was true-breeding or segregating for the new resistance trait. The M3 progeny of W4-4 were screened for resistance with the same seed soak technique used to select the original W4-4 M2 plant. Twenty seeds each of the W4-4 M3 family, W20 line, and Williams line were soaked for 16 hours in a solution of 2 ppm of Compound 8. Twenty additional seeds of Williams were soaked for 16 hours in plain tap water as a control treatment. Treated seeds were then washed for two minutes in running water. Each seed was then planted in a separate pot for ease of observation.

W4-4 M3 family = test: Seed soak test with Compound 8; type: in vivo, soybean; conditions: W4-4 M3, seeds soaked 16 hours in 2 ppm solution, within two weeks of planting
Experimental: as §3

Compound: COc1nc(C)nc(NC(=O)NS(=O)(=O)c2ccccc2Cl)n1 [Compound 1, 2-chloro-N-[[(4-methoxy-6-methyl-1,3,5-triazin-2-yl)amino]carbonyl]benzenesulfonamide]
- % Injury (Williams 82; WM 82, 0.3 g/ha preemergence): 30%
- % Injury (Williams 82; WM 82, 1 g/ha preemergence): 50%
- % Injury (Williams 82; WM 82, 3 g/ha preemergence): 73%
- % Injury (Williams 82; WM 82, 10 g/ha preemergence): 95%
- % Injury (Williams 82; WM 82, 30 g/ha preemergence): 100%
- % Injury (Williams 82; WM 82, 100 g/ha preemergence): 100%
- % Injury (Williams 82; WM 82, 300 g/ha preemergence): 100%
- % Injury (W20; W20, 0.3 g/ha preemergence): 0%
- % Injury (W20; W20, 1 g/ha preemergence): 0%
- % Injury (W20; W20, 3 g/ha preemergence): 3%
- % Injury (W20; W20, 10 g/ha preemergence): 3%
- % Injury (W20; W20, 30 g/ha preemergence): 18%
- % Injury (W20; W20, 100 g/ha preemergence): 63%
- % Injury (W20; W20, 300 g/ha preemergence): 65%
- uninhibited ALS activity (% of control) ([1]; W20, chlorsulfuron 10 mg/l-l): 50.6 % of control
- uninhibited ALS activity (% of control) ([1]; W20, chlorsulfuron 20 mg/l-l): 35.2 % of control
- uninhibited ALS activity (% of control) ([1]; W20, chlorsulfuron 50 mg/l-l): 31.1 % of control
- uninhibited ALS activity (% of control) ([1]; W20, chlorsulfuron 100 mg/l-l): 20.8 % of control
- uninhibited ALS activity (% of control) ([1]; W20, chlorsulfuron 200 mg/l-l): 19.0 % of control
- uninhibited ALS activity (% of control) ([2]; W28, chlorsulfuron 10 mg/l-l): 54.6 % of control
- uninhibited ALS activity (% of control) ([2]; W28, chlorsulfuron 20 mg/l-l): 46.1 % of control
- uninhibited ALS activity (% of control) ([2]; W28, chlorsulfuron 50 mg/l-l): 42.8 % of control
- uninhibited ALS activity (% of control) ([2]; W28, chlorsulfuron 100 mg/l-l): 36.4 % of control
- uninhibited ALS activity (% of control) ([2]; W28, chlorsulfuron 200 mg/l-l): 34.3 % of control
- uninhibited ALS activity (% of control) ([3]; W23, chlorsulfuron 10 mg/l-l): 55.3 % of control
- uninhibited ALS activity (% of control) ([3]; W23, chlorsulfuron 20 mg/l-l): 46.3 % of control
- uninhibited ALS activity (% of control) ([3]; W23, chlorsulfuron 50 mg/l-l): 38.9 % of control
- uninhibited ALS activity (% of control) ([3]; W23, chlorsulfuron 100 mg/l-l): 37.4 % of control
- uninhibited ALS activity (% of control) ([3]; W23, chlorsulfuron 200 mg/l-l): 34.0 % of control
- uninhibited ALS activity (% of control) ([4]; W19, chlorsulfuron 10 mg/l-l): 60.7 % of control
- uninhibited ALS activity (% of control) ([4]; W19, chlorsulfuron 20 mg/l-l): 54.5 % of control
- uninhibited ALS activity (% of control) ([4]; W19, chlorsulfuron 50 mg/l-l): 48.7 % of control
- uninhibited ALS activity (% of control) ([4]; W19, chlorsulfuron 100 mg/l-l): 45.7 % of control
- uninhibited ALS activity (% of control) ([4]; W19, chlorsulfuron 200 mg/l-l): 40.8 % of control

Compound: COC(=O)c1cccnc1S(=O)(=O)NC(=O)Nc1nc(OC)cc(OC)n1 [Compound 8, Methyl 2-[[[[(4,6-dimethoxy-2-pyrimidinyl)amino]carbonyl]amino]sulfonyl]-3-pyridinecarboxylate]
- uninhibited ALS activity as % of control (ALS of W23-10): 7.9 % of control
- seedling development after seed soak (Williams): had not started to form true leaves
- seedling development after seed soak (W4-4 M3 family): had developed both unifoliolate and trifoliolate leaves
